This passage reports Kd results from US20250011368A1, “DLL3 TARGETING PEPTIDES AND CONSTRUCTS THEREOF” (MARIANA ONCOLOGY INC., priority 2023, published 2025).

Bridge positions count the residues as written; N and C are the ends. Square brackets hold non-standard residues; d marks the D form. Peptide text beside a SMILES is read from it. * marks the point of attachment. ξ: configuration not given here. DOTA = O=C(O)CN1CCN(CC(=O)O)CCN(CC(=O)*)CCN(CC(=O)O)CC1; Trp(5-F) = N[C@@H](Cc1c[nH]c2ccc(F)cc12)C(=O)O; Phe(2-CF3) = N[C@@H](Cc1ccccc1C(F)(F)F)C(=O)O; Trp(7-aza) = N[C@@H](Cc1c[nH]c2ncccc12)C(=O)O; Pro(trans-4-F) = O=C(O)[C@@H]1C[C@@H](F)CN1; Phe(4-F) = N[C@@H](Cc1ccc(F)cc1)C(=O)O; Gly(4-THP) = N[C@H](C(=O)O)C1CCOCC1; Nva(3-Et) = CCC(CC)[C@H](N)C(=O)O; Cha = N[C@@H](CC1CCCCC1)C(=O)O; Cba = N[C@@H](CC1CCC1)C(=O)O; Chg = N[C@H](C(=O)O)C1CCCCC1; Tle = CC(C)(C)[C@H](N)C(=O)O; Nle = CCCC[C@H](N)C(=O)O; Aze = O=C(O)[C@@H]1CCN1; ξK = NCCCCC(N)C(=O)O

This test deals with T1, human DLL3 (Homo sapiens, UniProt Q9NYJ7).
T1 sequence (Q9NYJ7 27-618): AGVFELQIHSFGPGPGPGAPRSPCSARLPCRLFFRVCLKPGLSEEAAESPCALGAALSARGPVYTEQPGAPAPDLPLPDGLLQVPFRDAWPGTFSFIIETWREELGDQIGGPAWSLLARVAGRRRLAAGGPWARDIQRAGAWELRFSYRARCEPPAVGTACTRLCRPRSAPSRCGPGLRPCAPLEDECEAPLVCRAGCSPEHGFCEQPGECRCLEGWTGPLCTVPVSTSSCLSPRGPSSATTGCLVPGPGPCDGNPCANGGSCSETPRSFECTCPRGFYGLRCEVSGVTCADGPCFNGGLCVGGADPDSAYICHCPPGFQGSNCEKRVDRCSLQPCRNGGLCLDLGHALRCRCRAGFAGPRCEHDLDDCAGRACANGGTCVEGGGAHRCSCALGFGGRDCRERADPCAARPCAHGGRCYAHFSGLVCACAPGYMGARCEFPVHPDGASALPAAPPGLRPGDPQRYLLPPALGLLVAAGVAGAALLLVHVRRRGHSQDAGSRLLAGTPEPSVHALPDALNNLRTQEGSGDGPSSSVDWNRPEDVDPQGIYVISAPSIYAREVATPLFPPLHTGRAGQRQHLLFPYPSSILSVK
The test can be described thus: Affinity determination by Surface Plasmon Resonance (SPR). In kind it is binding. The following applies: 25° C., biotinylated human DLL3 immobilized on streptavidin sensor chip, 1:1 binding model; read-out: SPR KD. Here is the method:
SPR studies were performed on the compounds disclosed herein using the following protocol.
Biotinylated target ligand human DLL3 was immobilized on a streptavidin sensor chip. A reference surface was set up for nonspecific binding and refractive index changes. For analysis of the kinetics of interactions, varying concentrations of samples were injected at a flow rate of 100 μL/minute using running buffer containing 20 mM phosphate buffer with 2.7 mM KCl, 137 mM NaCl, 0.05% Surfactant P20 and 2% DMSO. Sensorgram curves were fitted with 1:1 binding model, and affinity and kinetic parameters were obtained using Biacore Insight evaluation 4.0. software.

One may read the Kd as a measure of binding affinity in units of concentration. For `CCC(CC)[C@H](NC(=O)[C@@H](NC(=O)[C@H](Cc1c[nH]c2ccc(F)cc12)NC(C)=O)[C@@H](C)O)C(=O)N[C@H]1CSSC[C@@H](C(=O)N[C@@H](Cc2c[nH]c3ncccc23)C(=O)N2CC[C@H]2C(=O)NC(CCCCNC(=O)CN2CCN(CC(=O)O)CCN(CC(=O)O)CCN(CC(=O)O)CC2)C(N)=O)NC(=O)[C@H](CC(=O)O)NC(=O)[C@H](Cc2cnc[nH]2)NC(=O)[C@H](Cc2ccc(F)cc2)NC(=O)[C@H](CC(N)=O)NC(=O)[C@H](CC(N)=O)NC1=O` (stereo partly drawn) [compound 122, Ac-(5Fluoro-W)-T-(Env)-C(3)-N-N-(4Fluoro-F)-H-D-C(3)-(7Aza-W)-(Aze)-[D-Lys(DOTA)]-NH2] (Ac-[Trp(5-F)]T[Nva(3-Et)]CNN[Phe(4-F)]HDC[Trp(7-aza)][Aze][ξK](DOTA)-NH2; disulfide 4-10), the Kd was 0.001 to 0.01 µM.

For `CC(=O)N[C@@H](Cc1c[nH]c2ccc(F)cc12)C(=O)N[C@H](C(=O)N[C@H](C(=O)N[C@H]1CSSC[C@@H](C(=O)N[C@@H](Cc2c[nH]c3ncccc23)C(=O)N2CC[C@H]2C(=O)NC(CCCCNC(=O)CN2CCN(CC(=O)O)CCN(CC(=O)O)CCN(CC(=O)O)CC2)C(N)=O)NC(=O)[C@H](CC(=O)O)NC(=O)[C@H](Cc2cnc[nH]2)NC(=O)[C@H](Cc2ccc(F)cc2)NC(=O)[C@H](CC(N)=O)NC(=O)[C@H](CC(N)=O)NC1=O)C1CCOCC1)[C@@H](C)O` (stereo partly drawn) [compound 123, Ac-(5Fluoro-W)-T-(THPG)-C(3)-N-N-(4Fluoro-F)-H-D-C(3)-(7Aza-W)-(Aze)-[D-Lys(DOTA)]-NH2] (Ac-[Trp(5-F)]T[Gly(4-THP)]CNN[Phe(4-F)]HDC[Trp(7-aza)][Aze][ξK](DOTA)-NH2; disulfide 4-10), the Kd fell in the range of 0.01 to 0.1 µM.

In the case of `CCCC[C@H](NC(=O)[C@@H](NC(=O)[C@H](Cc1c[nH]c2ccc(F)cc12)NC(C)=O)[C@@H](C)O)C(=O)N[C@H]1CSSC[C@@H](C(=O)N[C@@H](Cc2c[nH]c3ncccc23)C(=O)N2CC[C@H]2C(=O)NC(CCCCNC(=O)CN2CCN(CC(=O)O)CCN(CC(=O)O)CCN(CC(=O)O)CC2)C(N)=O)NC(=O)[C@H](CC(=O)O)NC(=O)[C@H](Cc2cnc[nH]2)NC(=O)[C@H](Cc2ccc(F)cc2)NC(=O)[C@H](CC(N)=O)NC(=O)[C@H](CC(N)=O)NC1=O` (stereo partly drawn) [compound 124, Ac-(5Fluoro-W)-T-(Nle)-C(3)-N-N-(4Fluoro-F)-H-D-C(3)-(7Aza-W)-(Aze)-[D-Lys(DOTA)]-NH2] (Ac-[Trp(5-F)]T[Nle]CNN[Phe(4-F)]HDC[Trp(7-aza)][Aze][ξK](DOTA)-NH2; disulfide 4-10), the Kd was in the range of 0.01 to 0.1 µM.

As for `CC(=O)N[C@@H](Cc1c[nH]c2ccc(F)cc12)C(=O)N[C@H](C(=O)N[C@@H](CC1CCCCC1)C(=O)N[C@H]1CSSC[C@@H](C(=O)N[C@@H](Cc2c[nH]c3ncccc23)C(=O)N2CC[C@H]2C(=O)N[C@H](CCCCNC(=O)CN2CCN(CC(=O)O)CCN(CC(=O)O)CCN(CC(=O)O)CC2)C(N)=O)NC(=O)[C@H](CC(=O)O)NC(=O)[C@H](Cc2cnc[nH]2)NC(=O)[C@H](Cc2ccc(F)cc2)NC(=O)[C@H](CC(N)=O)NC(=O)[C@H](CC(N)=O)NC1=O)[C@@H](C)O` [compound 125, Ac-(5Fluoro-W)-T-(CHA)-C(3)-N-N-(4Fluoro-F)-H-D-C(3)-(7Aza-W)-(Aze)-[D-Lys(DOTA)]-NH2] (Ac-[Trp(5-F)]T[Cha]CNN[Phe(4-F)]HDC[Trp(7-aza)][Aze][dK](DOTA)-NH2; disulfide 4-10), the Kd is 0.001 to 0.01 µM.

As to `CC(=O)N[C@@H](Cc1c[nH]c2ccc(F)cc12)C(=O)N[C@H](C(=O)N[C@@H](CC1CCC1)C(=O)N[C@H]1CSSC[C@@H](C(=O)N[C@@H](Cc2c[nH]c3ncccc23)C(=O)N2CC[C@H]2C(=O)N[C@H](CCCCNC(=O)CN2CCN(CC(=O)O)CCN(CC(=O)O)CCN(CC(=O)O)CC2)C(N)=O)NC(=O)[C@H](CC(=O)O)NC(=O)[C@H](Cc2cnc[nH]2)NC(=O)[C@H](Cc2ccc(F)cc2)NC(=O)[C@H](CC(N)=O)NC(=O)[C@H](CC(N)=O)NC1=O)[C@@H](C)O` [compound 126, Ac-(5Fluoro-W)-T-(CBA)-C(3)-N-N-(4Fluoro-F)-H-D-C(3)-(7Aza-W)-(Aze)-[D-Lys(DOTA)]-NH2] (Ac-[Trp(5-F)]T[Cba]CNN[Phe(4-F)]HDC[Trp(7-aza)][Aze][dK](DOTA)-NH2; disulfide 4-10), the dissociation constant (Kd) fell in the range of 0.01 to 0.1 µM.

As to `CC(=O)N[C@@H](Cc1c[nH]c2ccc(F)cc12)C(=O)N[C@H](C(=O)N[C@H](C(=O)N[C@H]1CSSC[C@@H](C(=O)N[C@@H](Cc2c[nH]c3ncccc23)C(=O)N2CC[C@H]2C(=O)N[C@H](CCCCNC(=O)CN2CCN(CC(=O)O)CCN(CC(=O)O)CCN(CC(=O)O)CC2)C(N)=O)NC(=O)[C@H](CC(=O)O)NC(=O)[C@H](Cc2cnc[nH]2)NC(=O)[C@H](Cc2ccc(F)cc2)NC(=O)[C@H](CC(N)=O)NC(=O)[C@H](CC(N)=O)NC1=O)C1CCCCC1)[C@@H](C)O` [compound 127, Ac-(5Fluoro-W)-T-(Chg)-C(3)-N-N-(4Fluoro-F)-H-D-C(3)-(7Aza-W)-(Aze)-[D-Lys(DOTA)]-NH2] (Ac-[Trp(5-F)]T[Chg]CNN[Phe(4-F)]HDC[Trp(7-aza)][Aze][dK](DOTA)-NH2; disulfide 4-10), the Kd was in the range of 0.01 to 0.1 µM.

As for `CC(=O)N[C@@H](Cc1c[nH]c2ccc(F)cc12)C(=O)N[C@H](C(=O)N[C@@H](Cc1ccccc1C(F)(F)F)C(=O)N[C@H]1CSSC[C@@H](C(=O)N[C@@H](Cc2c[nH]c3ncccc23)C(=O)N2CC[C@H]2C(=O)N[C@H](CCCCNC(=O)CN2CCN(CC(=O)O)CCN(CC(=O)O)CCN(CC(=O)O)CC2)C(N)=O)NC(=O)[C@H](CC(=O)O)NC(=O)[C@H](Cc2cnc[nH]2)NC(=O)[C@H](Cc2ccc(F)cc2)NC(=O)[C@H](CC(N)=O)NC(=O)[C@H](CC(N)=O)NC1=O)[C@@H](C)O` [compound 128, Ac-(5Fluoro-W)-T-(2CF3-F)-C(3)-N-N-(4Fluoro-F)-H-D-C(3)-(7Aza-W)-(Aze)-[D-Lys(DOTA)]-NH2] (Ac-[Trp(5-F)]T[Phe(2-CF3)]CNN[Phe(4-F)]HDC[Trp(7-aza)][Aze][dK](DOTA)-NH2; disulfide 4-10), the Kd lay within 0.001 to 0.01 µM.

Consider `CC(=O)N[C@@H](Cc1c[nH]c2ccc(F)cc12)C(=O)N[C@H](C(=O)N[C@H](C(=O)N[C@H]1CSSC[C@@H](C(=O)N[C@@H](Cc2c[nH]c3ncccc23)C(=O)N2C[C@H](F)C[C@H]2C(=O)N[C@H](CCCCNC(=O)CN2CCN(CC(=O)O)CCN(CC(=O)O)CCN(CC(=O)O)CC2)C(N)=O)NC(=O)[C@H](CC(=O)O)NC(=O)[C@H](Cc2cnc[nH]2)NC(=O)[C@H](Cc2ccc(F)cc2)NC(=O)[C@H](CC(N)=O)NC(=O)[C@H](CC(N)=O)NC1=O)C(C)(C)C)[C@@H](C)O` [compound 129, Ac-(5Fluoro-W)-T-(Tbg)-C(3)-N-N-(4Fluoro-F)-H-D-C(3)-(7Aza-W)-(trans4Fluoro-P)-[D-Lys(DOTA)]-NH2] (Ac-[Trp(5-F)]T[Tle]CNN[Phe(4-F)]HDC[Trp(7-aza)][Pro(trans-4-F)][dK](DOTA)-NH2; disulfide 4-10), for which the dissociation constant (Kd) is 0.01 to 0.1 µM.

`CCC(CC)[C@H](NC(=O)[C@@H](NC(=O)[C@H](Cc1c[nH]c2ccc(F)cc12)NC(C)=O)[C@@H](C)O)C(=O)N[C@H]1CSSC[C@@H](C(=O)N[C@@H](Cc2c[nH]c3ncccc23)C(=O)N2C[C@H](F)C[C@H]2C(=O)N[C@H](CCCCNC(=O)CN2CCN(CC(=O)O)CCN(CC(=O)O)CCN(CC(=O)O)CC2)C(N)=O)NC(=O)[C@H](CC(=O)O)NC(=O)[C@H](Cc2c[nH]cn2)NC(=O)[C@H](Cc2ccc(F)cc2)NC(=O)[C@H](CC(N)=O)NC(=O)[C@H](CC(N)=O)NC1=O` [compound 130, Ac-(5Fluoro-W)-T-(Env)-C(3)-N-N-(4Fluoro-F)-H-D-C(3)-(7Aza-W)-(trans4Fluoro-P)-[D-Lys(DOTA)]-NH2] (Ac-[Trp(5-F)]T[Nva(3-Et)]CNN[Phe(4-F)]HDC[Trp(7-aza)][Pro(trans-4-F)][dK](DOTA)-NH2; disulfide 4-10): the Kd is 0.001 to 0.01 µM.

Take `CC(=O)N[C@@H](Cc1c[nH]c2ccc(F)cc12)C(=O)N[C@H](C(=O)N[C@H](C(=O)N[C@H]1CSSC[C@@H](C(=O)N[C@@H](Cc2c[nH]c3ncccc23)C(=O)N2C[C@H](F)C[C@H]2C(=O)N[C@H](CCCCNC(=O)CN2CCN(CC(=O)O)CCN(CC(=O)O)CCN(CC(=O)O)CC2)C(N)=O)NC(=O)[C@H](CC(=O)O)NC(=O)[C@H](Cc2cnc[nH]2)NC(=O)[C@H](Cc2ccc(F)cc2)NC(=O)[C@H](CC(N)=O)NC(=O)[C@H](CC(N)=O)NC1=O)C1CCOCC1)[C@@H](C)O` [compound 131, Ac-(5Fluoro-W)-T-(THPG)-C(3)-N-N-(4Fluoro-F)-H-D-C(3)-(7Aza-W)-(trans4Fluoro-P)-[D-Lys(DOTA)]-NH2] (Ac-[Trp(5-F)]T[Gly(4-THP)]CNN[Phe(4-F)]HDC[Trp(7-aza)][Pro(trans-4-F)][dK](DOTA)-NH2; disulfide 4-10): the Kd fell in the range of 0.001 to 0.01 µM.
